Key:
[1] = Reduction with ascorbic acid followed by 195Pt NMR; format: physicochemical; conditions: 1 eq. ascorbic acid, 37 °C
Description: The reduction reaction of two representative complexes (1A and 1P) and the release of the indole carboxylic acid ligands was analyzed by HPLC using ascorbic acid as the reductant and 37 °C, pH 7 as physiological conditions (Fig. 4 and S1). The HPLC chromatograms of the reduction reaction of the complexes were compared with the chromatograms of pure samples of the carboxylic acid ligands. […] After 3 h incubation with 10 eq. of ascorbic acid 75% of 1P and 50% of 1A was reduced. […] We further studied the nature of the Pt(II) species produced upon the reduction of 1P and 1A by ^195Pt NMR. […] Unfortunately, monitoring the reduction reaction of the symetrically (2A and 2P) and unsymmetrically (3A–5A and 3P–5P) substituted dicarboxylato complexes was hampered by the poor solubility of the complexes in water and most organic solvents except DMF and DMSO. For the same reason the reduction potentials could not be determined by cyclic voltammetry. […]
Compounds 1A and 1P (10 mM) were incubated at 37 °C, respectively, in the presence of 10 mM ascorbic acid in 12 mM HEPES buffer at pH 7. […] The ^195Pt NMR spectra were recorded by inserting a tube with D2O into the NMR tube.

caspase-3 = test: Caspase-3 activation; format: cell-based, human; conditions: A375, IC50 doses, 48 h
Description: Caspase-3 cleavage reached values similar to that exerted by the well-known caspase-dependent apoptosis inducer staurosporine.
Protein aliquots (100 μg) were stained at 37 °C for 60 min with fluorescent caspase-3 substrate N-acetyl-Asp-Glu-Val-Asp-AMC (AMC = 7-amino-4-methylcoumarin) (Sigma Co.). Substrate hydrolysis was measured after 60 min by monitoring the release of AMC using a spectrofluorimeter (excitation at 370 nm, emission at 460 nm).

[2] = Reduction with ascorbic acid followed by HPLC; format: physicochemical; conditions: 10 eq. ascorbic acid, 37 °C, pH 7, HPLC; for complex reduced: 3 h incubation
Description: The reduction reaction of two representative complexes (1A and 1P) and the release of the indole carboxylic acid ligands was analyzed by HPLC using ascorbic acid as the reductant and 37 °C, pH 7 as physiological conditions (Fig. 4 and S1). The HPLC chromatograms of the reduction reaction of the complexes were compared with the chromatograms of pure samples of the carboxylic acid ligands. […] After 3 h incubation with 10 eq. of ascorbic acid 75% of 1P and 50% of 1A was reduced. […] We further studied the nature of the Pt(II) species produced upon the reduction of 1P and 1A by ^195Pt NMR. […] Unfortunately, monitoring the reduction reaction of the symetrically (2A and 2P) and unsymmetrically (3A–5A and 3P–5P) substituted dicarboxylato complexes was hampered by the poor solubility of the complexes in water and most organic solvents except DMF and DMSO. For the same reason the reduction potentials could not be determined by cyclic voltammetry. However it has been reported that the reduction rate of cis,cis,trans-[Pt(NH3)2Cl2(RCOO)(OH)] monocarboxylato complexes is faster than that of dicarboxylato complexes and this has been attributed to the fact that hydroxido ligands are much better bridging ligands for electron transfer than carboxylate ligands.
The reduction of the complexes 1A and 1P) with ascorbic acid was followed by HPLC using a Phenomenex Luna C18 ([…], 100 Å, 250 mm × 4.60 mm i.d.) column at a flow rate of 1.0 mL/min with 280 nm UV detection at room temperature. The mobile phase was 80:20 acetonitrile (1% trifluoroacetic acid) : water (1% trifluoroacetic acid). The complexes were dissolved in DMF (0.5 mL) and added to a 5 mM solution of ascorbic acid in 2 mM 4-(2-hydroxyethyl)piperazine-1-ethanesulfonic acid (HEPES) buffer (pH 7) and diluted to a final concentration of 0.5 mM using acetonitrile. The process was followed at 37 °C until complete reduction.

A375 melanoma cells = test: Cellular accumulation of Pt (GF-AAS); format: cell-based, human; conditions: for cellular platinum accumulation (in words): A375, 1.5 and 3 μM, 6 and 24 h
[3] = tested on: panel of human tumor cell lines (BxPC3, HCT-15, MCF-7, A431, A549, A375); test: MTT cytotoxicity, mean over panel of human tumor cell lines; format: cell-based; conditions: mean over the six cell lines of Table 1, 72 h
Description: The cytotoxic activity of the complexes and of the uncoordinated ligands was evaluated by the MTT test on a panel of human tumor cell lines containing examples of pancreatic (BxPC3), colorectal (HCT-15), breast (MCF-7), cervical (A431), and lung (A549) cancers as well as of melanoma (A375). For comparison purposes, the cytotoxicity of cisplatin was evaluated under the same experimental conditions.
The growth inhibitory effect toward tumor cells was evaluated by means of the MTT assay. Briefly, (3–8) × 10^3 cells/well, dependent upon the growth characteristics of the cell line, were seeded in 96-well microplates in growth medium (100 μL). After 24 h, the medium was removed and replaced with fresh medium containing the compound to be studied at the appropriate concentration. Triplicate cultures were established for each treatment. After 24, 48, or 72 h, each well was treated with 10 μL of a 5 mg/mL MTT saline solution and, after 5 h of incubation, 100 μL of a sodium dodecylsulfate (SDS) solution in 0.01 M HCl was added. After an overnight incubation, cell growth inhibition was detected by measuring the absorbance of each well at 570 nm using a Bio-Rad 680 microplate reader. The mean absorbance for each drug dose was expressed as a percentage of the control, untreated well absorbance and plotted vs drug concentration. The IC50 values, the drug concentrations that decrease the mean absorbance at 570 nm to 50% of that of untreated control wells, were calculated from the dose–response curves with the four-parameter logistic model (4PL). The final value is the mean ± S.D. of at least three independent experiments performed in triplicate.

[NH2][Pt]([NH2])([OH])([Cl])([Cl])[O]C(=O)Cc1c[nH]c2ccccc12 [Complex 1A]
time to complete reduction [1]: 30 h | caspase-3 activity, factor over untreated control cells (caspase-3): ~5 | time to complete reduction [2]: 30 h | complex reduced [2]: 50%

[NH2][Pt]([NH2])([OH])([Cl])([Cl])[O]C(=O)CCc1c[nH]c2ccccc12 [Complex 1P, cis,cis,trans-[Pt(NH3)2Cl2(IPA)(OH)]]
cellular platinum, times greater than cisplatin (A375 melanoma cells; A375, 3 μM, 24 h, GF-AAS): about 2.3 | cellular platinum accumulation (in words) (A375 melanoma cells): internalized most efficiently | IC50 [3]: ~2.5 µM | time to complete reduction [1]: 24 h | caspase-3 activity, factor over untreated control cells (caspase-3): ~5 | time to complete reduction [2]: 24 h | complex reduced [2]: 75%

[NH2][Pt]([NH2])([Cl])([Cl])([O]C(=O)CCC(=O)O)[O]C(=O)Cc1c[nH]c2ccccc12 [Complex 4A]
cellular platinum accumulation (in words) (A375 melanoma cells): lowest platinum accumulation | cellular uptake level, times lower than cisplatin (A375 melanoma cells; A375, GF-AAS): about 7

From PMC4941645, “Oxidative Stress Induced by Pt(IV) Pro-drugs Based on the Cisplatin Scaffold and Indole Carboxylic Acids in Axial Position” (Scientific Reports, 2016)
